# Reference: patent publication US6638726B1, “Screening methods for compounds useful in the treatment of polycystic kidney disease” (Mount Sinai School of Medicine of New York University, priority 2000, dated 2003)
# System: ADPKD cells
# Test: modified Boyden chamber motility assay
# Assay type: cell-based, human
# Settings: cells treated for 2 days with 10 mM LiCl, migration through 8 μM pores, 1%-5% FBS gradient, fluorescent microplate quantification, compared with NHCT and NHTAL controls
# Experimental: To assay for cell motility a number of different assays may be used, including but not limited to, standard migratory assays on slides or using modified Boyden chambers. Such assay systems are described in further detail in a working example of the present specification (See, Example 7).
# Using a modified Boyden chamber motility assay human renal epithelial cells and ADPKD cells were plated (5000 cells/membrane) in the upper chamber and allowed to migrate through 8 μM pores for 0-15 hours in response to a 1%-5% FBS gradient. All primary and differentiated conditionally immortalized cell types migrate in a a time-dependent fashion but more normal adult collecting tubule (NHCT) and thick ascending limb (NHTAL) cells appeared in the lower chamber than ADPKD epithelia, 975±10 (NHCT), 1060±(NHTAL) versus 426±20 (ADPKD). The effect of lithium on renal epithelial cell motility was assessed. Calcein-AM (Goldberg, A. Fluorescent Blocking Membrane Enhances Analyses of Cell-Based Assay. Becton Dickinson Techniques Bulletin #429) labeled cells were treated for 2 days±10 mM LICL and then plated onto membranes as described above.
smiles,measurement,setting,value
"[Cl-].[Li+] [LiCl, lithium chloride]",motility of ADPKD cells,,significantly increased the motility of ADPKD cells
same,motility of ADPKD cells,listed as Lithium,increases the motility of ADPKD cells to the level observed for NHCT (CT) cells
same,motility of ADPKD cells,listed as lithium,decreased epithelial cell motility can be reversed
same,motility of ADPKD cells,listed as lithium chloride,increase the motility of ADPKD cells to almost normal levels
